For assay [1], the system named is human monocytes differentiated into macrophages under lactic acidosis (LA-Mφ). The assay can be described thus: Oxygen consumption rate (XF96 extracellular flux analyzer). The note with it: LA-Mφ+AcAc compared to LA-Mφ. Format: cell-based. How it is done:
Peripheral blood mononuclear cells (PBMC) were obtained from healthy human volunteers (Blood collection center, Angers, France; agreement ANG-2017-01) by standard density-gradient centrifugation on lymphocyte separation medium (Eurobio, Courtaboeuf, France). CD14+ monocytes were then isolated by positive magnetic cell-sorting (Miltenyi Biotec, Bergisch Gladbach, Germany). Monocytes (1×10^6 cells/mL) were cultured in complete medium (CM) consisting of RPMI 1640 (Lonza, Verviers, Belgium) supplemented with 10% fetal calf serum (FCS) (Eurobio), 2 mM L-glutamine, 1 mM sodium pyruvate, 0.1 mM non-essential amino acids, 10 mM HEPES, 100 U/mL penicillin and 100 μg/mL streptomycin (all from Lonza) in the presence of 50 ng/mL GM-CSF (R&D Systems, Minneapolis, MN). […]
We used an XF96 extracellular flux analyzer (Agilent Technologies, Santa Clara, CA) to determine the bioenergetic profile of cells. […] Oxygen consumption rate (OCR) was recorded, to assess mitochondrial respiratory activity and glycolytic activity. OCR was recorded in basal conditions, and the cells were then treated sequentially with 2 μg/mL oligomycin, and 3 μM carbonyl cyanide p-(trifluoromethoxy) phenylhydrazone (FCCP) (both from Sigma-Aldrich). […]

Assay [2] shares this test system. In words: Autophagy assessed by TEM or molecularly (LC3, p62 western blot, mRNA). Format: cell-based. The note with it: day 3 LA-Mφ+AcAc relative to Mφ; data not shown. The text has this: Peripheral blood mononuclear cells (PBMC) were obtained from healthy human volunteers (Blood collection center, Angers, France; agreement ANG-2017-01) by standard density-gradient centrifugation on lymphocyte separation medium (Eurobio, Courtaboeuf, France). CD14+ monocytes were then isolated by positive magnetic cell-sorting (Miltenyi Biotec, Bergisch Gladbach, Germany). […]
Cells were lysed in Trizol reagent (Life Technologies, Thermo Fisher Scientific), and total RNA was extracted with the RNeasy Micro kit (Qiagen, Hilden, Germany) and then reverse-transcribed with the Superscript II reverse transcriptase (Life Technologies). Levels of mRNA encoding the indicated proteins were then analyzed by subjecting the cDNA obtained by reverse transcription to qPCR. Relative quantification was performed by the 2^−ΔΔCT method, with RPS18, EF1A, TBP, RPL13A and PPIA as references. Results are expressed as relative mRNA levels.
Levels of LC3-I, LC3-II, p62, β-actin, AMPKα and pAMPKα were evaluated by western blotting. […] Protein loading was assessed by probing the membrane with a rabbit anti-β-actin antibody (Abcam, Cambridge, UK). Bound antibodies were detected by incubation with 1 μg/mL peroxidase-conjugated anti-rabbit or anti-mouse IgG antibody (Life Technologies) or with an anti-AMPK Ab, with the SuperSignal West Femto system (Thermo Fisher Scientific). […]
On the technique in general: Immunoblotting shows a protein as a band on a membrane.

Consider one compound from patent publication US20240325330A1, “NEW METHOD TO TREAT ACIDOSIS RELATED DISEASES WITH ACETOACETATE” (INSTITUT NATIONAL DE LA SANTÉ ET DE LA RECHERCHE MÉDICALE, priority 2021, published 2024).

Take `CC(=O)CC(=O)[O-].[Li+]` [AcAc, lithium acetoacetate]: in assay [1], the OCR consumption result is “induced”. Also, in assay [2], the autophagy entry was “not upregulated”.
